Measured values reported in patent US20030114530A1, “Remedies for degenerative arthritis” (priority 2000, published 2003).
“Also recorded” adds a separate entry of the source.

Experiments:
model of OA in rabbits = conditions: Inflamm Res 44, Suppl 2, S117-118 (1995); cited from earlier work
[1] = tested on: partial meniscectomy model of osteoarthritis rabbits; assay: partial meniscectomy model of osteoarthritis in rabbits; type: in vivo, rabbit
Procedure: The effect of the compound on osteoarthritis invented in this study was confirmed by the experiments of a partial meniscectomy model in rabbits.
Female rabbits (Kbs: NZW(Healthy)) were bred for one week before the experiments. The animals were subjected to OA model according to following method.
Each animal was anesthetized with a subcutaneous injection of xylazine (0.05 ml/kg) and an intravenous injection of sodium pentobarbital (20 mg/kg). Right hind knee was shaved, and the width of the knee was measured with the micrometer caliper. It was disinfected with iodine solution. If required local anesthesia was performed with lidocaine hydrochloride.
The skin and articular capsule around right knee were incised at right angle to patellar ligament, the fibular collateral and sesamoid ligament were transected with blades. Adrenaline solution was dropped for the arrest of hemorrhage. The lateral meniscus was partially removed. After washing the operated area with saline solution, the synovium and articular capsule were stitched together. Then muscular coat and skin were put in a suture. […]
After anesthesia with sodium pentobarbital (40 mg/kg), the hind knee was shaved and the width of them was measured with a micrometer caliper. […] After masking, the area of erosion was measured. […]

Structure (SMILES) | effect on a model of OA (model of OA in rabbits) | erosion area of femur ([1]; 10, 30, 100 or 300 mg/kg twice a day, oral, 7 days after meniscectomy, FIG. 1) | efficacy in the partial meniscectomy OA model ([1]; rabbits, oral twice a day)
COc1ccc(S(=O)(=O)N(Cc2cccnc2)[C@@H](C(=O)NO)C(C)C)cc1.Cl [CGS-27023A, 2(R)-[N-(4-methoxyphenylsulfonyl)-N-(3-pyridylmethyl)amino]-3-methylbutanohydroxamic acid hydrochloride] | effected on a model of OA in rabbits |  | 
CCOCOC[C@H](C[C@H](C)C(=O)NO)NC(=O)c1ccc(Oc2ccccc2)cc1 [compound of formula (I), N-hydroxy-5-ethoxymethyloxy-2(S)-methyl-4(S)-(4-phenoxybenzoyl)aminopentanamide] |  | decreasing effect | shows an efficiency; also recorded: high-effectivity
